Biological target: recombinant human SAE enzyme (Homo sapiens (Human), UniProt Q9UBT2)
Experiment: SAE HTRF enzyme assay
Type: biochemical
Details: for Percent Inhibition: SAE inhibition at compound concentration 0.111 μM; for IC50: SAE inhibition, class symbols, legend in nM
In short: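 HTRF read-out using Eu-cryptate anti-Flag and allophycocyanin anti-GST antibodies, added with EDTA stop buffer and read after 2 h at 24 °C. The preceding reaction ran 105 min at 24 °C: 0.11 nM recombinant SAE, 0.5 μM ATP, Sumo-Flag, Ubc9-GST, pH 7.5. Values given as single-concentration inhibition or IC50.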

recombinant human SAE enzyme, sequence (Q9UBT2 whole entry): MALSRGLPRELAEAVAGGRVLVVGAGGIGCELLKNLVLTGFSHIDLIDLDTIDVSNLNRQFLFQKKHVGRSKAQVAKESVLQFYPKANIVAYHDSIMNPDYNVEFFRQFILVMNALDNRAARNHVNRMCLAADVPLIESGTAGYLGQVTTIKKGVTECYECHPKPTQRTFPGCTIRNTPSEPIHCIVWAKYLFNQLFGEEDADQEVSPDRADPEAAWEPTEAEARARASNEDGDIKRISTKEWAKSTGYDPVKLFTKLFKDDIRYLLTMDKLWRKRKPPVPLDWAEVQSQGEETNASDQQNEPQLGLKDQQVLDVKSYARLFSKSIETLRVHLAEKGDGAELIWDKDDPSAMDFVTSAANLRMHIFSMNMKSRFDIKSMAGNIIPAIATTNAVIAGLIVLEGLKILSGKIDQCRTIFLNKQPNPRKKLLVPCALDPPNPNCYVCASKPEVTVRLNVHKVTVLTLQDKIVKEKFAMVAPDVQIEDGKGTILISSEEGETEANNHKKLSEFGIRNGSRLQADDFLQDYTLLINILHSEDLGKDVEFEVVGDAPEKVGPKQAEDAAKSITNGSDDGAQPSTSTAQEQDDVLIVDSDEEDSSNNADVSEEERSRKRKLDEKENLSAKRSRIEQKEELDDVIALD
recombinant human SAE enzyme, sequence (Q9UBE0 whole entry partner): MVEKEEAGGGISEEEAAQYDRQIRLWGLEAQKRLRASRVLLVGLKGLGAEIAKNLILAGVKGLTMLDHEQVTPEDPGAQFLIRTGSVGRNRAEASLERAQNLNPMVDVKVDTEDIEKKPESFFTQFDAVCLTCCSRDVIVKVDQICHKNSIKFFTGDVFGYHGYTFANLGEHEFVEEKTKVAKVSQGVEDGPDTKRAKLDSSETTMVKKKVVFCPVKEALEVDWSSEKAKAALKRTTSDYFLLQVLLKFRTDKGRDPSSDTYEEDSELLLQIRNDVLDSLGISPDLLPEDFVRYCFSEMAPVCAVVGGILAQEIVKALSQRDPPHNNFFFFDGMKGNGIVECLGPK

Row | SMILES | Percent Inhibition [%] | IC50 [nM]
1 | NS(=O)(=O)OC[C@H]1C[C@@H](Nc2ncncc2C(=O)c2cc([C@@H]3NCCc4ccc(Cl)cc43)c(Cl)o2)C[C@@H]1O (single isomer, unassigned) [I-299b, {(1R,2S,4R)-4-[(5-{5-chloro-4-[(1R)-7-chloro-1,2,3,4-tetrahydroisoquinolin-1-yl]-2-furoyl}pyrimidin-4-yl)amino]-2-hydroxycyclopentyl}methyl sulfamate or {(1R,2S,4R)-4-[(5-{5-chloro-4-[(1S)-7-chloro-1,2,3,4-tetrahydroisoquinolin-1-yl]-2-furoyl}pyrimidin-4-yl)amino]-2-hydroxycyclopentyl}methyl sulfamate] | 93 | < 10
2 | Cc1sc(C(=O)c2cncnc2N[C@@H]2C[C@H](COS(N)(=O)=O)[C@@H](O)C2)nc1C1OCCc2ccc(Cl)cc21 (single isomer, unassigned) [I-300a, [(1R,2S,4R)-4-{[5-({4-[(1R)-7-chloro-3,4-dihydro-1H-isochromen-1-yl]-5-methyl-1,3-thiazol-2-yl}carbonyl)pyrimidin-4-yl]amino}-2-hydroxycyclopentyl]methyl sulfamate or [(1R,2S,4R)-4-{[5-({4-[(1S)-7-chloro-3,4-dihydro-1H-isochromen-1-yl]-5-methyl-1,3-thiazol-2-yl}carbonyl)pyrimidin-4-yl]amino}-2-hydroxycyclopentyl]methyl sulfamate] | 26 | 100 to 1000
3 | Cc1sc(C(=O)c2cncnc2N[C@@H]2C[C@H](COS(N)(=O)=O)[C@@H](O)C2)nc1C1OCCc2ccc(Cl)cc21 (single isomer, unassigned) [I-300b, [(1R,2S,4R)-4-{[5-({4-[(1R)-7-chloro-3,4-dihydro-1H-isochromen-1-yl]-5-methyl-1,3-thiazol-2-yl}carbonyl)pyrimidin-4-yl]amino}-2-hydroxycyclopentyl]methyl sulfamate or [(1R,2S,4R)-4-{[5-({4-[(1S)-7-chloro-3,4-dihydro-1H-isochromen-1-yl]-5-methyl-1,3-thiazol-2-yl}carbonyl)pyrimidin-4-yl]amino}-2-hydroxycyclopentyl]methyl sulfamate] | 101 | < 10
4 | NS(=O)(=O)OC[C@H]1C[C@@H](Nc2ncncc2C(=O)c2cc([C@@H]3OCCc4c(Cl)cccc43)cs2)C[C@@H]1O (single isomer, unassigned) [I-301a, [(1R,2S,4R)-4-{[5-({4-[(1R)-5-chloro-3,4-dihydro-1H-isochromen-1-yl]-2-thienyl}carbonyl)pyrimidin-4-yl]amino}-2-hydroxycyclopentyl]methyl sulfamate or [(1R,2S,4R)-4-{[5-({4-[(1S)-5-chloro-3,4-dihydro-1H-isochromen-1-yl]-2-thienyl}carbonyl)pyrimidin-4-yl]amino}-2-hydroxycyclopentyl]methyl sulfamate] | 40 | 100 to 1000
5 | NS(=O)(=O)OC[C@H]1C[C@@H](Nc2ncncc2C(=O)c2cc([C@@H]3OCCc4c(Cl)cccc43)cs2)C[C@@H]1O (single isomer, unassigned) [I-301b, [(1R,2S,4R)-4-{[5-({4-[(1R)-5-chloro-3,4-dihydro-1H-isochromen-1-yl]-2-thienyl}carbonyl)pyrimidin-4-yl]amino}-2-hydroxycyclopentyl]methyl sulfamate or [(1R,2S,4R)-4-{[5-({4-[(1S)-5-chloro-3,4-dihydro-1H-isochromen-1-yl]-2-thienyl}carbonyl)pyrimidin-4-yl]amino}-2-hydroxycyclopentyl]methyl sulfamate] | 100 | < 10
6 | Cc1nc2c(s1)[C@H](c1cc(C(=O)c3cncnc3N[C@@H]3C[C@H](COS(N)(=O)=O)[C@@H](O)C3)sc1C)OCC2 (single isomer, unassigned) [I-305a, [(1R,2S,4R)-2-hydroxy-4-{[5-({5-methyl-4-[(4S)-2-methyl-6,7-dihydro-4H-pyrano[4,3-d][1,3]thiazol-4-yl]-2-thienyl}carbonyl)pyrimidin-4-yl]amino}cyclopentyl]methyl sulfamate or [(1R,2S,4R)-2-hydroxy-4-{[5-({5-methyl-4-[(4R)-2-methyl-6,7-dihydro-4H-pyrano[4,3-d][1,3]thiazol-4-yl]-2-thienyl}carbonyl)pyrimidin-4-yl]amino}cyclopentyl]methyl sulfamate] | 28 | 100 to 1000
7 | Cc1nc2c(s1)[C@H](c1cc(C(=O)c3cncnc3N[C@@H]3C[C@H](COS(N)(=O)=O)[C@@H](O)C3)sc1C)OCC2 (single isomer, unassigned) [I-305b, [(1R,2S,4R)-2-hydroxy-4-{[5-({5-methyl-4-[(4S)-2-methyl-6,7-dihydro-4H-pyrano[4,3-d][1,3]thiazol-4-yl]-2-thienyl}carbonyl)pyrimidin-4-yl]amino}cyclopentyl]methyl sulfamate or [(1R,2S,4R)-2-hydroxy-4-{[5-({5-methyl-4-[(4R)-2-methyl-6,7-dihydro-4H-pyrano[4,3-d][1,3]thiazol-4-yl]-2-thienyl}carbonyl)pyrimidin-4-yl]amino}cyclopentyl]methyl sulfamate] | 98 | < 10
8 | CN1CCc2ccc(Cl)cc2[C@@H]1c1csc(C(=O)c2cncnc2N[C@@H]2C[C@H](COS(N)(=O)=O)[C@@H](O)C2)c1 (single isomer, unassigned) [I-307a, [(1R,2S,4R)-4-{[5-({4-[(1R)-7-chloro-2-methyl-1,2,3,4-tetrahydroisoquinolin-1-yl]-2-thienyl}carbonyl)pyrimidin-4-yl]amino}-2-hydroxycyclopentyl]methyl sulfamate or [(1R,2S,4R)-4-{[5-({4-[(1S)-7-chloro-2-methyl-1,2,3,4-tetrahydroisoquinolin-1-yl]-2-thienyl}carbonyl)pyrimidin-4-yl]amino}-2-hydroxycyclopentyl]methyl sulfamate] | 45 | 100 to 1000
9 | CN1CCc2ccc(Cl)cc2[C@@H]1c1csc(C(=O)c2cncnc2N[C@@H]2C[C@H](COS(N)(=O)=O)[C@@H](O)C2)c1 (single isomer, unassigned) [I-307b, [(1R,2S,4R)-4-{[5-({4-[(1R)-7-chloro-2-methyl-1,2,3,4-tetrahydroisoquinolin-1-yl]-2-thienyl}carbonyl)pyrimidin-4-yl]amino}-2-hydroxycyclopentyl]methyl sulfamate or [(1R,2S,4R)-4-{[5-({4-[(1S)-7-chloro-2-methyl-1,2,3,4-tetrahydroisoquinolin-1-yl]-2-thienyl}carbonyl)pyrimidin-4-yl]amino}-2-hydroxycyclopentyl]methyl sulfamate] | 97 | < 10
10 | NS(=O)(=O)OC[C@H]1C[C@@H](Nc2ncncc2C(=O)c2cc([C@@H]3OCc4ccc(Cl)cc43)c(Cl)s2)C[C@@H]1O (single isomer, unassigned) [I-310a, [(1R,2S,4R)-4-{[5-({5-chloro-4-[(1R)-6-chloro-1,3-dihydro-2-benzofuran-1-yl]-2-thienyl}carbonyl)pyrimidin-4-yl]amino}-2-hydroxycyclopentyl]methyl sulfamate or [(1R,2S,4R)-4-{[5-({5-chloro-4-[(1S)-6-chloro-1,3-dihydro-2-benzofuran-1-yl]-2-thienyl}carbonyl)pyrimidin-4-yl]amino}-2-hydroxycyclopentyl]methyl sulfamate] | 27 | 100 to 1000
